Earlier results on two compounds are cited in PMC7221964 (Molecules, 2020).

The subject of this data set is epigenetic reader proteins. An excerpt:
ITC studies provided thermodynamic parameters (Gibbs free energy of binding ΔG°, enthalpy of binding ΔH°, entropy of binding ΔS°) for the association between five ...

Where two headings read alike, the source gives them in different places.

Turning to `C[N+](C)(C)CCSCC(N)C(=O)O` (centres unmarked) [KCme3, trimethylthialysine], the “recognition by reader proteins” value (different epigenetic reader proteins) is “well recognized”. `C[N+](C)(C)CCCCCC(N)C(=O)O` (centres unmarked) [trimethylhomolysine]: under “panel of the same five reader proteins”, the “recognition by reader proteins” value is “very well recognized”.
